Where “and” joins values, the source holds several entries; their conditions need not be identical. Equal entries are not always repeated. Where two headings read alike, the source gives them in different places. One block for each compound: values may come before it.
Assays:
[1] = biological target: T1, interaction between ERα and the LXXLL2 peptide from the coactivator GRIP1 (Homo sapiens, UniProt P03372); experiment: Mammalian two hybrid assay; type: cell-based; conditions: FIG. 4; for Effect on the LXXLL-ER interaction: second assay, 5-40 μM
T1 construct: expressed in transfected cells
T1 sequence (P03372 1-595): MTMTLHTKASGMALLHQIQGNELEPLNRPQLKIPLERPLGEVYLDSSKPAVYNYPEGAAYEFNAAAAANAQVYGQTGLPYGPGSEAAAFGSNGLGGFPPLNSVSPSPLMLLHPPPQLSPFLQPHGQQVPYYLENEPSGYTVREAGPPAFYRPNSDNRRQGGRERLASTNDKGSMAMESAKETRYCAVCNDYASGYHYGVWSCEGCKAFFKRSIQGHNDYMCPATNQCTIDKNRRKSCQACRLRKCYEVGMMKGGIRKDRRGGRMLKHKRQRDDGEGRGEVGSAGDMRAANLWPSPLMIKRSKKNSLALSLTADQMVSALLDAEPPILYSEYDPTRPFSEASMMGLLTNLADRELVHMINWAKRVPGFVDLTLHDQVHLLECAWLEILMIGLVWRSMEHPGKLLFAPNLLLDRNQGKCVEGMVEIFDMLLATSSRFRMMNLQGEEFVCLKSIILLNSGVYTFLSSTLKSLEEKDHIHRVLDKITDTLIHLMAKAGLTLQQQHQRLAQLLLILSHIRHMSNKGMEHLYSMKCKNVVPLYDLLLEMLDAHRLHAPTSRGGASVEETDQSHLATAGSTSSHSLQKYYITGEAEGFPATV
Method: The Mammalian Hybrid Assay used a similar procedure as described in Chang et al., Molec. & Cellul. Biol., (1999) 19:12 8226-8239 except the compounds shown in Table 1, supra, were used instead of phage-derived peptides.
(§1) Human cervical cancer (HeLa) and hepatoma (HepG2) cells were cultured in minimum essential medium (Life Technologies, Inc.) supplemented with 10% fetal bovine serum (HyClone), 0.1 mM nonessential amino acids, and 1 mM sodium pyruvate (Life Technologies, Inc.) and maintained in a humidified 37° C. incubator with 5% CO2. For transient transfections, cells were split into 24-well plates 24 h before transfection. Lipofectin (Life Technologies, Inc.)-mediated transfection has been described in detail previously (27). A DNA-Lipofectin mixture containing a total of 3,000 ng of plasmid in each of triplicate samples was incubated with cells for 3 to 5 h, and transfection was stopped by replacing the transfection mix with fresh medium (minimal essential medium without phenol red) containing 10% charcoal-stripped serum. Receptor ligands were added to the cells 14 to 16 h before the assay. Luciferase and (3-galactosidase activities were measured. In mammalian two-hybrid assays, for a typical triplicate of transfection, 2,000 ng of 5×Gal4Luc3 reporter plasmid, 400 ng of receptor-VP16 fusion, 400 ng of pM (Gal4 DBD)-peptide fusion constructs, and 200 ng of normalization plasmid pCMVβgal were used. For ER transcription disruption assays, 1,600 ng of 3 XERE-TATA-Luc reporter, 200 ng of pCMVβgal, 400 ng of either pRST7ERα, pRST7ERβ, or other receptor mutant constructs, and 0 to 800 ng of pM-peptide fusion plasmids were used. The parent pM vector (Gal4DBD without peptide fusion) was used in these experiments to balance the amount of input DNA in transfections. All transfections were performed at least three times.
The mammalian two hybrid assay assessed whether the compounds disrupt the interaction between ERα and an LXXLL peptide derived from an ER coactivator (GRIP1). OH-tam is an ERα antagonist and was used as a positive control.
(§2) A second assay with another group of compounds was performed to determine the proper dose for use in cell culture. Compounds were used at concentrations between 5-40 μM. The mammalian two hybrid assay was used to examine the interaction between ERα and the LXXLL2 peptide from the coactivator GRIP1. #82 and OH-tam were used as controls.

[2] = tested on: cells; experiment: Toxicity to cells seen in the mammalian two hybrid dose-finding assay; type: cell-based, Human; conditions: FIG. 4; 5-40 μM in cell culture
Method: as §1, §2
AW78 was also effective. […] AW77 was very toxic to cells at the high concentrations tested.

[3] = biological target: T2, endogenous ERα in MCF7 cells (Homo sapiens, UniProt P03372); experiment: RBA assay, competition with 3H-estradiol in MCF7 cells; type: binding; conditions: 1 nM 3H-estradiol
T2 construct: the endogenous ERα in MCF7 cells; endogenous in cells; host or cells: MCF7 breast cancer cells
T2 sequence (P03372 1-595): T1 sequence (P03372 1-595)
Method: The RBA assay was performed to examine the ability of the compounds to compete for the binding of 1 nM of 3H-estradiol to the endogenous ERα in MCF7 cells.

[4] = biological target: T3, purified full-length human ERβ (Homo sapiens, UniProt Q92731); experiment: Estrogen receptor relative binding affinity assay, competitive radiometric, [3H]estradiol tracer; conditions: RBA of estradiol set to 100%, 18-24 h at 0° C.
T3 construct: purified full-length human ERα and ERβ were purchased from PanVera/Invitrogen; purchased PanVera/Invitrogen (Carlsbad, Calif.)
Method: (§3) Relative binding affinity assays were run to determine whether the compounds of this disclosure are traditional ligands that compete with estradiol. […]; purified full-length human ERα and ERβ were purchased from PanVera/Invitrogen (Carlsbad, Calif.). Incubations were conducted for 18-24 h at 0° C. Hydroxyapatite (BioRad, Hercules, Calif.) was used to absorb the receptor-ligand complexes, and free ligand was washed away. The binding affinities are expressed as relative binding affinity (RBA) values with the RBA of estradiol set to 100%. […]

[5] = biological target: T4, purified full-length human ERα (Homo sapiens, UniProt P03372); experiment: as above; conditions: RBA of estradiol set to 100%, 18-24 h at 0° C.
T4 construct: purified full-length human ERα and ERβ were purchased from PanVera/Invitrogen; purchased PanVera/Invitrogen (Carlsbad, Calif.)
T4 sequence (P03372 1-595): T1 sequence (P03372 1-595)
Method: as §3

[6] = biological target: T5, full-length ER alpha (Homo sapiens, UniProt P03372); experiment: Cell-based luciferase reporter gene assay (2ERE Luc) in HEC-1 cells; conditions: * = very small dynamic range compared to positive control
T5 construct: 100 ng of full-length ER alpha expression vector; expressed in transfected cells; host or cells: HEC-1 (human endometrial cancer) cells
T5 sequence (P03372 1-595): T1 sequence (P03372 1-595)
From the text: (§4) The protocols for both the time-resolved fluorescence resonance energy transfer (TR-FRET) assay and the cell-based reporter gene assay can be found in Parent, et al. (2008) J. Med. Chem. 51(20):6512-30. A 15-mer SRC1-Box II peptide and a published guanylhydrazone CBI (Lafrate et al., (2008) Bioorg. Med. Chem. 2008:16(23)) were used as positive controls in the TR-FRET and reporter gene assays, respectively.
Human endometrial cancer (HEC-1) cells were maintained in culture and transfected in 24 well plates. HBSS (50 μL/well), Holo-transferrin (Sigma T1408) (20 μL/well), and lipofectin (Invitrogen no. 18292-011) (5 μL/well) were incubated together at RT for 5 min. A DNA mixture containing 200 ng of pCMVβ-galactosidase as an internal control, 500 ng of the estrogen responsive reporter gene plasmid 2ERE Luc, and 100 ng of full-length ER alpha expression vector with 75 μL of HBSS per well was added to the first mixture and allowed to incubate for 20 min at RT. After changing the cell media to Opti-MEM (350 μL/well), 150 μL of the transfection mixture was added to each well. The cells were incubated at 37° C. in a 5% CO2 containing incubator for 6 h before the medium was replaced with fresh medium containing 5% charcoal-dextran-treated calf serum and the desired concentrations of ligands. Luciferase reporter gene activity was assayed 24 h after ligand addition.
In the initial screen, compounds were assayed in a dose-response format at concentrations ranging from 20 μM to 0.6 μM; […]. Upon validation of antagonistic activity, mechanism of action was examined by repeating the compound titration in the presence of both 10^-7 and 10^-9 M E2 with an expectation that changing the concentration of E2 100-fold would not change the IC50 of true coactivator binding inhibitors. These assays was also repeated to confirm results. The positive control is a guanyl hydrazone.

[7] = biological target: T6, ERα-417 / SRC-3-NRD (Homo sapiens, UniProt P03372, C381S/C530S); experiment: In vitro coactivator binding inhibitor TR-FRET CBI assay (displacement of SRC3); conditions: * = very small dynamic range compared to positive control
T6 sequence (P03372 304-554 C381S/C530S limits assumed): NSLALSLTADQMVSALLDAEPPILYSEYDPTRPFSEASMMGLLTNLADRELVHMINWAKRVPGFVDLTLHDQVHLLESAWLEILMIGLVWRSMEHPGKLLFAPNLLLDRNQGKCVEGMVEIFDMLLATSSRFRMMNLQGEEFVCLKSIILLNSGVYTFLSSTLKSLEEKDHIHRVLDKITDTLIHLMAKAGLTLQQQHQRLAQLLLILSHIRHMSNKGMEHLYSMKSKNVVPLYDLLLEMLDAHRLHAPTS
From the text: as §4
Purified ERα-417, labeled site-specifically with maleimide-biotin (Quanta BioDesign) and SRC-3-NRD, labeled nonspecifically through cysteine residues with iodoacetamide-fluorescein (Invitrogen), were used in the TR-FRET assays. […]. In a second 96-well Nunc polypropylene plate (Nalge Nunc International, Rochester, N.Y.), a 0.02 M solution of each coactivator binding inhibitor was serially diluted in a 1:10 fashion into DMF. Each concentration of coactivator binding inhibitor or vehicle was then diluted 1:10 into TR-FRET buffer, and 10 μL of this solution was added to the stock […] solution in the 96-well plate. After a 20 min incubation, 5 μL of 200 nM fluorescein-SRC-3-NRD was added to each well. This mixture was allowed to incubate for 1 h at RT in the dark. TR-FRET was measured using an excitation filter at 340/10 nm and emission filters for terbium and fluorescein at 495/20 and 520/25 nm, respectively. […].
The results are shown in FIGS. 1A and 1b and show the displacement of the SRC3. The peptide control has an IC50 of about 1 uM.

[8] = HEC-1 cells, in the presence of estradiol, read-out: Reporter Gene IC50
[9] = estradiol 1 μM, read-out: TR-FRET IC50
[10] = repeat run, read-out: TR-FRET Repeat
[11] = repeat run, read-out: Reporter Gene IC50 (μM) - repeat

T3 sequence (Q92731 whole entry): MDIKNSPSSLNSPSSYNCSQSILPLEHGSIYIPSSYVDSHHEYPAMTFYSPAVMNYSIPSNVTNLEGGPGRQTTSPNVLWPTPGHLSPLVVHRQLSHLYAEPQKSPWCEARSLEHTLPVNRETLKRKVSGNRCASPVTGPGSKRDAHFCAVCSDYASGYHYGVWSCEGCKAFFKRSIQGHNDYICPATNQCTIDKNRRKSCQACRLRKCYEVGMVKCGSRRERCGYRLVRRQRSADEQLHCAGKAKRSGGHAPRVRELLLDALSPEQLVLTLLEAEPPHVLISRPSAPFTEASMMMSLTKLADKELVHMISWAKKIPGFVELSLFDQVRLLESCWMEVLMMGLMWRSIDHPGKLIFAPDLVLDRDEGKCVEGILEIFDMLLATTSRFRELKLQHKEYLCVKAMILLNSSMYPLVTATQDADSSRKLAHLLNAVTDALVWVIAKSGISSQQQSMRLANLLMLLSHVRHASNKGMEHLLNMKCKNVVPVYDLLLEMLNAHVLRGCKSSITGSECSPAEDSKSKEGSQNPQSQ

Effect on the LXXLL-ER interaction [1]: induced LXXLL-ER interaction
SMILES: CCOC(=O)COc1ccc(-c2ccc(OCCN(C)C)c(Cc3ccccc3)c2)cc1Cc1ccccc1 [PW-78]

Effect on the LXXLL-ER interaction [1]: effective
SMILES: CCOC(=O)COc1ccc(-c2ccc(O)c(C(C)CC)c2)cc1C(C)CC (stereo not drawn) [AW-78]

Effect on the LXXLL-ER interaction [1]: induced LXXLL-ER interaction
SMILES: CCOC(=O)COc1ccc(-c2ccc(OCCN(C)C)cc2)cc1 [PW-82]

Concentration at which the ERα-LXXLL2 interaction is inhibited ([1]; tested at 5-40 μM): about 40 μM
SMILES: CCOC(=O)COc1ccc(-c2ccc(O)c(C(C)C)c2)cc1C(C)C [PW-74]
Toxicity to cells [2]: no significant toxicity

Effect on the LXXLL-ER interaction [1]: induced LXXLL-ER interaction
SMILES: CCOC(=O)COc1ccc(-c2ccc(OCCN(C)C)c(C(C)CC)c2)cc1C(C)CC (stereo not drawn) [AW-79]
Toxicity to cells [2]: toxic at a high dose

Competition for the binding of 3H-estradiol [3]: competed
ERβ RBA ([4]; listed as AW-III-82-56): 0.018% and 0.017% and 0.018 ± 0.001%
ERα RBA ([5]; listed as AW-III-82-56): 0.055% and 0.038% and 0.049 ± 0.016%
IC50 [6, 8]: 6 µM
SMILES: CN(C)CCOc1ccc(-c2ccc(OCC(=O)O)c(C(C)(C)C)c2)cc1C(C)(C)C [AW-82]

Effect on the LXXLL-ER interaction [1]: induced LXXLL-ER interaction
SMILES: CCOC(=O)COc1ccc(-c2ccc(OCCN(C)C)c(C(C)C)c2)cc1C(C)C [PW-76]

Competition for the binding of 3H-estradiol [3]: competed
IC50 [7, 9]: 205 µM
IC50 [7, 10]: 2050 µM
ERβ RBA [4]: <0.001%
ERα RBA [5]: <0.001%
IC50 [6, 8]: 5.8 µM
IC50 [6, 11]: 18 µM
SMILES: CN(C)CCOc1ccc(-c2ccc(OCC(=O)O)cc2)cc1 [PW-83]

SMILES: CCOC(=O)COc1ccc(-c2ccc(O)c(Cc3ccccc3)c2)cc1Cc1ccccc1 [PW-77]
Toxicity to cells [2]: very toxic

Effect on the LXXLL-ER interaction [1]: induced LXXLL-ER interaction
SMILES: CCOC(=O)COc1ccc(-c2ccc(O)cc2)cc1 [AW-84]

Effect on the LXXLL-ER interaction [1]: induced LXXLL-ER interaction
SMILES: CCOC(=O)COc1ccc(-c2ccc(O)c(C(C)(C)C)c2)cc1C(C)(C)C [AW-73]

IC50 [7, 9]: 87 µM
IC50 [7, 10]: 227 µM
ERβ RBA [4]: ~0.001%
ERα RBA [5]: ~0.001%
IC50 [6, 8]: 1.8 µM
IC50 [6, 11]: 6 µM
SMILES: CCC(C)c1cc(-c2ccc(OCC(=O)O)c(C(C)CC)c2)ccc1OCCN(C)C (stereo not drawn) [AW-87]

IC50 [7, 9]: 55 µM
IC50 [7, 10]: 583 µM
ERβ RBA [4]: <0.001%
ERα RBA [5]: <0.001%
IC50 [6, 8]: 21 µM
SMILES: CC(C)c1cc(-c2ccc(OCC(=O)O)c(C(C)C)c2)ccc1OCCN(C)C [PW-80]

Competition for the binding of 3H-estradiol [3]: did not compete
IC50 [7, 9]: 163 µM
IC50 [7, 10]: 1100 µM
ERβ RBA [4]: ~0.001%
ERα RBA [5]: <0.001%
IC50 [6, 8]: 13 µM
SMILES: CN(C)CCOc1ccc(-c2ccc(OCC(=O)O)c(Cc3ccccc3)c2)cc1Cc1ccccc1 [PW-81]
